From US20060052399A1, “Oxazolidinone derivatives as antibacterial agents” (AstraZeneca AB, priority 2002, published 2006)
In brackets after ≈: the same amount, converted by molar mass.

Assays:
Assay type in all cases: cell-based
Haemophilus influenzae = assay: MIC in Mueller-Hinton broth, Haemophilus influenzae; conditions: Mueller-Hinton broth with hemin and NAD, aerobic, 24 hours, 37° C.
Experimental: (§1) The following results were obtained on a standard in-vitro test system. The activity is described in terms of the minimum inhibitory concentration (MIC) determined by the agar-dilution technique with an inoculum size of 10^4 CFU/spot. Typically, compounds are active in the range 0.01 to 256 μg/ml.
(§2) Streptococci and enterococci were tested on agar supplemented with 5% defibrinated horse blood, an inoculum of 10^4 CFU/spot and an incubation temperature of 37° C. in an atmosphere of 5% carbon dioxide for 48 hours—blood is required for the growth of some of the test organisms. Fastidious Gram negative organisms were tested in Mueller-Hinton broth, supplemented with hemin and NAD, grown aerobically for 24 hours at 37° C., and with an innoculum of 5×10^4 CPU/well.

Moraxella catarrhalis = assay: MIC in Mueller-Hinton broth, Moraxella catarrhalis; conditions: Mueller-Hinton broth with hemin and NAD, aerobic, 24 hours, 37° C.
Experimental: as §1, §2

Streptococcus pneumoniae = assay: MIC by agar dilution, Streptococcus pneumoniae; conditions: agar with 5% defibrinated horse blood, 10^4 CFU/spot, 37° C., 5% carbon dioxide, 48 hours
Experimental: as §1, §2

[1] = test system: Staphylococcus aureus MRQR (methicillin resistant and quinolone resistant); assay: MIC by agar dilution, Staphylococcus aureus MRQR; conditions: 10^4 CFU/spot, 37° C., 24 hours
Experimental: as §1
(§3) Staphylococci were tested on agar, using an inoculum of 10^4 CFU/spot and an incubation temperature of 37° C. for 24 hours—standard test conditions for the expression of methicillin resistance.

Enterococcus faecium = assay: MIC by agar dilution, Enterococcus faecium; conditions: agar with 5% defibrinated horse blood, 10^4 CFU/spot, 37° C., 5% carbon dioxide, 48 hours
Experimental: as §1, §2

[2] = test system: Staphylococcus aureus MSQS (methicillin sensitive and quinolone sensitive); assay: MIC by agar dilution, Staphylococcus aureus MSQS; conditions: 10^4 CFU/spot, 37° C., 24 hours
Experimental: as §1, §3

[3] = test system: Linezolid Reistant Streptococcus pneumoniae; assay: MIC by agar dilution, linezolid resistant Streptococcus pneumoniae; conditions: agar with 5% defibrinated horse blood, 10^4 CFU/spot, 37° C., 5% carbon dioxide, 48 hours
Experimental: as §1, §2

## Cn1nnnc1-c1ccc(-c2ccc(N3CC(CNC(=O)C4CC4)OC3=O)cc2F)cn1 (stereo in doubt) [Example 2, N-[[(5R)-3-[3-Fluoro-4-[6-(1-methyl-1H-1,2,3,4-tetrazol-5-yl)-3-Pyridinyl]phenyl]oxazolidin-2-on-5-yl]methyl]cycloproanecarboxamide]
Haemophilus influenzae
  MIC: > 64 µg/mL
Moraxella catarrhalis
  MIC: 0.5 µg/mL (≈ 1.14 µM)
Streptococcus pneumoniae
  MIC: 0.5 µg/mL (≈ 1.14 µM)
[1]
  MIC: 2 µg/mL (≈ 4.57 µM)
Enterococcus faecium
  MIC: 1 µg/mL (≈ 2.29 µM)
[2]
  MIC: 2 µg/mL (≈ 4.57 µM)
[3]
  MIC: 4 µg/mL (≈ 9.14 µM)
